# According to patent US4788206A, “Pentadieneamides” (Hoffmann-La Roche Inc., priority 1987, dated 1988):
# Key:
# [1] = molecular target: T1, PAF Binding, dog platelets (Canis lupus familiaris, UniProt A0A8I3NSH0); assay: PAF Binding Assay (inhibition of 3H-PAF binding to washed dog platelets); conditions: dog platelets, 3H-PAF, 10 minutes at room temperature; read-out: Inhib of PAF Binding IC50
# T1 construct: Washed platelets were prepared by resuspending the platelet pellet once with PBS containing 1 mM EDTA; from tissue; host or cells: washed platelets from dog blood
# T1 sequence (A0A8I3NSH0 1-343): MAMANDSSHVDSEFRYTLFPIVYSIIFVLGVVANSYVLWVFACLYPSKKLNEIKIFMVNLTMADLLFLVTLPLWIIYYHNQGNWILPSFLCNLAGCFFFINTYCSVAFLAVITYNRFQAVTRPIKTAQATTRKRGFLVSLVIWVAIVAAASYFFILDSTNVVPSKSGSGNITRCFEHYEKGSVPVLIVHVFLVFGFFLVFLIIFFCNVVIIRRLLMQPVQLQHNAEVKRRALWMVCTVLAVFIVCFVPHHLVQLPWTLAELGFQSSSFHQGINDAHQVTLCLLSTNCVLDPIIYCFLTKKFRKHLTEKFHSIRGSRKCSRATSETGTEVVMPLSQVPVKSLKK
# Description: The binding assay was done in 400 μl polyethylene microcentrifuge tubes (Beckman) containing 50 μl of an oil mixture of 2 parts Siliconol AR200 (Serva): 1 part Silicone Fluid (Arthur H. Thomas). Buffer, standards, or analogs (150 μl total volume) were added to the tubes. Radiolabelled ^3 H-PAF (50 μl) was then added to the tubes. The reaction was started by the addition of 50 μl of dog platelets (2×10^7 platelets). The tubes were capped, inverted several times to mix, and incubated for 10 minutes at room temperature. The platelets were separated from the incubation mixture by centrifuging 1 minute in a Beckman Microfuge B centrifuge. The tip of the microfuge tube was cut off, and the platelets were washed out of the tip with 200 μl of 50% methanol (Burdick and Jackson). Aquasol (NEN, 10 ml) was added and the radioactivity in the samples was determined using an LS 8100 Beckman liquid scintillation counter linked to a Techtran tape recorder. Data was processed through an in-house computer system. Alternatively, radioactivity was determined using a Searle Mark III liquid scintillation counter linked to a Iso-Data microprocessor.
# (b) Preparation of Platelets
# Blood was collected from anesthesized or unanesthesized dogs into 50 ml plastic centrifuge tubes containing 3.8% sodium citrate as the anticoagulant (1 volume of citrate/9 volumes of blood). The red cells were removed by centrifugation for 15 minutes at 600 rpm (100-125 g) at room temperature. An aliquot of the supernatant platelet rich plasma (PRP) was saved for cell counting and the remainder was acidified to PH 6.5 with 0.15M citric acid. The platelet pellet was obtained after a 10 minute centrifugation at 2000 rpm (1000 g) at room temperature. Washed platelets were prepared by resuspending the platelet pellet once with PBS containing 1 mM EDTA, centrifuging as noted, and then resuspending the platelets in 0.1% BSA-PBS. An aliquot of the washed platelets was counted. Platelets used for binding assays were diluted to 2×10^7 platelets/assay tube (4×10^8 platelets/ml). Platelet counting was done using a Royco Cell-Crit 921.
# [2] = system: PAF-Induced Bronchoconstriction; assay: PAF Induced Bronchoconstriction Assay; assay type: in vivo, guinea pig; conditions: for Percent Inhib. of PAF-Induced Bronchoconstriction, mg/Kg i.v.: i.v. (dose not given), 1 minute pretreatment, PAF 1.0 μg/kg i.v.; for inhibition in vivo at 50 mg/kg: Cavia porcellus, po, 2-hour pretreatment, read-out: Percent Inhib. of PAF-Induced Bronchoconstriction, 50 mg/Kg p.o.; for inhibition in vivo at 50 mg/kg / Percent Inhib. of PAF-Induced Bronchoconstriction, 50 mg/Kg p.o. (8 hr): 50 mg/Kg p.o.
# Description: PAF Induced Bronchoconstriction Assay
# Male animals (Hartlet Strain 400-500 g) were anesthetized with urethane (2 g/kg. i.p.). Each animals' trachea was cannulated and the guinea pigs were repirated using a Harvard small animal rodent respirator (3.0 cc stroke volume, 40 breaths per min.). Tracheal pressure was recorded from a cannula inserted in the trachea and connected to a Statham Pressure Transducer.
# The jugular vein was cannulated for administering compounds. Spontaneous breathing was arrested with succinylcholine (1.2 mg/kg. i.v.) administered 2 minutes prior to intravenous injection of platelet activating factor (PAF).
# For, the intravenous testing, the guinea pig is given a 5-minute pretreatment with propranolol at a dose of 0.1 mg/kg intravenously. The test compound is administered with a 1 minute pretreatment prior to intravenous challenge with PAF. The animal is than challenged with a 1.0 μg/kg intravenous dose of PAF and the change is tracheal pressure is measured.
# For the oral testing, the procedure includes a 2-hour pretreatment period with the test compound administered through an oral gavage tube. Propranolol or succinylcholine and PAF are administered intravenously, and the change in tracheal pressure measured.
# The change is tracheal pressure is determined by subtracting the steady state baseline achieved after administration of succinylcholine from the peak bronchoconstriction seen after challenge with PAF. The mean is calculated for each test compound and compared to the mean of the control animals to give the percent inhibition of bronchoconstriction. The standard error is calcuated as the standard error of the mean.
SMILES,IC50 [1] [nM],"Percent Inhib. of PAF-Induced Bronchoconstriction, mg/Kg i.v. [2] [%]",inhibition in vivo at 50 mg/kg [2] [%],also measured
COc1ccc(C(=C/C=C/C(=O)NCCOCc2cccnc2)c2ccc(OC)cc2)cc1,25,48 ± 7,,
"COc1ccc(C(=C/C=C/C(=O)NC(CCCc2cccnc2)C(C)C)c2ccc(OC)cc2)cc1 (racemic) [[R,S-(E)]-5,5-bis(4-methoxyphenyl)-N-[1-(1-methylethyl)-4-(3-pyridinyl)butyl]-2,4-pentadienamide]",,87 ± 7,57 ± 19,
"COc1ccc(C(=C/C=C/C(=O)NC(C)CCCc2cccnc2C)c2ccc(OC)cc2)cc1 (racemic) [[R,S-(E)]-5,5-bis(4-methoxyphenyl)-N-[1-methyl-4-(2-methyl-3-pyridinyl)butyl]-2,4-pentadienamide]",30,47 ± 10,,
"C/C(=C\C=C(c1ccccc1)c1ccccc1)C(=O)NCCCCc1cccnc1 [(E)-5,5-Diphenyl-2-methyl-N-[4-(3-pyridinyl)butyl]-2,4-pentadienamide]",100,,,
"CC(C)(CCCc1cccnc1)NC(=O)/C=C/C=C(c1cccc(F)c1)c1cccc(F)c1 [(E)-5,5-bis(3-Fluorophenyl)-N-[1,1-dimethyl-4-(3-pyridinyl)butyl]-2,4-pentadienamide]",,,11 ± 10,
"COc1cccc(C(=C/C=C/C(=O)NC(C)(C)CCCc2cccnc2)c2cccc(OC)c2)c1 [(E)-5,5-bis(3-Methoxyphenyl)-N-[1,1-dimethyl-4-(3-pyridinyl)butyl]-2,4-pentadienamide]",,,22 ± 10,
"CC(C)(CCCc1cccnc1)NC(=O)/C=C/C=C(c1ccc(F)cc1)c1ccc(F)cc1 [(E)-5,5-bis(4-Fluorophenyl)-N-[1,1-dimethyl-4-(3-pyridinyl)butyl]-2,4-pentadienamide]",,,20 ± 14,
"COc1ccc(C(=C/C=C/C(=O)NC(C)(C)CCCc2cccnc2)c2ccc(OC)cc2)cc1 [(E)-5,5-bis(4-Methoxyphenyl)-N-1,1-dimethyl-4-(3-pyridinyl)butyl]-2,4-pentadienamide]",,,54 ± 9,
"Cc1ccc(C(=C/C=C/C(=O)NCCCCc2cccnc2)c2ccc(C)cc2)cc1 [(E)-5,5-bis(4-methylphenyl)-N-[4-(3-pyridinyl)butyl]-2,4-pentadienamide]",,95 ± 1,67 ± 15,"Percent Inhib. of PAF-Induced Bronchoconstriction, 50 mg/Kg p.o. (8 hr) [2]: 11 ± 6%"
"COc1ccc(C(=C/C=C/C(=O)Nc2cccc3cnccc23)c2ccc(OC)cc2)cc1 [(E)-N-(5-isoquinolinyl)-5,5-bis(4-methoxyphenyl)-2,4-pentadienamide]",600,,,
"COc1ccc(C(=C/C=C/C(=O)NCCCCc2cncc3ccccc23)c2ccc(OC)cc2)cc1 [(E)-N-[4-(4-isoquinolinyl)butyl]-5,5-bis(4-methoxyphenyl)-2,4-pentadienamide]",> 1000,,,
"O=C(/C=C\C=C(c1ccccc1)c1ccccc1)NCCCCc1cccnc1 [(Z)-5,5-diphenyl-N-[4-(3-pyridinyl)butyl]-2,4-pentadienamide]",400,,,
"CCCCC/C(=C/C=C/C(=O)N[C@H](C)CCCc1cccnc1)c1ccc(OC)cc1 [[R-(2E,4Z)]-5-(4-methoxyphenyl)-N-[1-methyl-4-(3-pyridinyl)butyl]-2,4-decadienamide]",,57 ± 12,,
"COc1ccc(/C(=C\C=C\C(=O)N[C@H](C)CCCc2cccnc2)c2ccccc2)cc1 [[R-(2E,4Z)]-5-(4-methoxyphenyl)-N-[1-methyl-4-(3-pyridinyl)butyl]-5-phenyl-2,4-pentadienamide]",,74 ± 11,0,
"COc1ccc(/C(=C\C=C\C(=O)N[C@H](C)CCCc2cccnc2)C2CCCCC2)cc1 [[R-(2E,4Z)]-5-cyclohexyl-5-(4-methoxyphenyl)-N-[1-methyl-4-(3-pyridinyl)butyl]-2,4-pentadienamide]",,18 ± 12,,
"CCCCC/C(=C\C=C\C(=O)N[C@H](C)CCCc1cccnc1)c1ccc(OC)cc1 [[R-(E,E)]5-(4-methoxyphenyl)-N-[1-methyl-4-(3-pyridinyl)butyl]-2,4-decadienamide]",,99 ± 1,100 ± 0.5,"Percent Inhib. of PAF-Induced Bronchoconstriction, 50 mg/Kg p.o. (8 hr) [2]: 71 ± 14%"
"COc1ccc(/C(=C/C=C/C(=O)N[C@H](C)CCCc2cccnc2)c2ccccc2)cc1 [[R-(E,E)]-5-(4-methoxyphenyl)-N-[1-methyl-4-(3-pyridinyl)butyl]-5-phenyl-2,4-pentadienamide]",,89 ± 4,95 ± 1,
"C[C@@H](CCCc1cccnc1)NC(=O)/C=C/C=C(c1ccc(F)cc1)c1ccc(F)cc1 [[S-(E)]-5,5-bis(4-fluorophenyl)-N-[1-methyl-4-(3-pyridinyl)butyl]-2,4-pentadienamide]",,,44 ± 10,

# Now from value to compound, other results behind:
IC50 [1] [nM],SMILES,"Percent Inhib. of PAF-Induced Bronchoconstriction, mg/Kg i.v. [2] [%]",inhibition in vivo at 50 mg/kg [2] [%],also measured
100,"CC(CCCc1cccnc1)NC(=O)/C=C/C=C(c1ccccc1)c1ccccc1 (racemic) [[R,S-(E)]-5,5-Diphenyl-N-[1-methyl-4-(3-pyridinyl)butyl]-2,4-pentadienamide]",,,
700,"COc1ccc(C(=C/C=C/C(=O)NC(C)CCCc2ccc(C)nc2)c2ccc(OC)cc2)cc1 (racemic) [[R,S-(E)]-5,5-bis(4-methoxyphenyl)-N-[1-methyl-4-(6-methyl-3-pyridinyl)butyl]-2,4-pentadienamide]",,,
> 1000,"CCCC(CCCc1cccnc1)NC(=O)/C=C/C=C(c1ccc(OC)cc1)c1ccc(OC)cc1 (racemic) [[R,S-(E)]-5,5-bis(4-methoxyphenyl)-N-[1-propyl-4-(3-pyridinyl)butyl]-2,4-pentadienamide]",24 ± 13,,
900,"CCc1ccc(CCCC(C)NC(=O)/C=C/C=C(c2ccc(OC)cc2)c2ccc(OC)cc2)cn1 (racemic) [[R,S-(E)]-5,5-bis-(4-methoxyphenyl)-N-[1-methyl-4-(6-ethyl-3-pyridinyl)butyl]-2,4-pentadienamide]",,,
20,"COc1cccc(C(=C/C=C/C(=O)NC(C)CCCc2cccnc2)c2cccc(OC)c2)c1 (racemic) [[R.S-(E)]-5,5-bis(3-methoxyphenyl)-N-[1-methyl-4-(3-pyridinyl)butyl]-2,4-pentadienamide]",,,
450,"COc1cccc(C(=C/C=C/C(=O)NCCCCCCc2cccnc2)c2cccc(OC)c2)c1 [(E)-5,5-bis(3-Methoxyphenyl)-N-[6-(3-pyridinyl)hexyl]-2,4-pentadienamide]",,,
300,"COc1ccc(C(=C/C=C/C(=O)NCCCOc2cccnc2)c2ccc(OC)cc2)cc1 [(E)-5,5-bis(4-methoxyphenyl)-N-[3-[(3-pyridinyl)oxy]propyl]-2,4-pentadienamide]",,,
> 1000,"COc1ccc(C(=C/C=C/C(=O)NCCCc2cccc3ccncc23)c2ccc(OC)cc2)cc1 [(E)-N-[3-(8-isoquinolinyl)propyl]-5,5-bis(4-methoxyphenyl)-2,4-pentadienamide]",,,
